According to paper PMC6232110, “Two novel, putative mechanisms of action for citalopram-induced platelet inhibition” (Scientific Reports, 2018):

Experiments:
[1] = biological target: T1, glycoprotein VI (GPVI) (Homo sapiens, UniProt Q9HCN6); test: Schild analysis of CRPXL-induced platelet aggregation; inhibition of anti-GPVI antibody binding by flow cytometry; format: cell-based; details: platelets; read-out: Kd
T1 construct: gene GP6; native GPVI on washed human platelets; with FcRγ chain
T1 sequence (Q9HCN6 21-339): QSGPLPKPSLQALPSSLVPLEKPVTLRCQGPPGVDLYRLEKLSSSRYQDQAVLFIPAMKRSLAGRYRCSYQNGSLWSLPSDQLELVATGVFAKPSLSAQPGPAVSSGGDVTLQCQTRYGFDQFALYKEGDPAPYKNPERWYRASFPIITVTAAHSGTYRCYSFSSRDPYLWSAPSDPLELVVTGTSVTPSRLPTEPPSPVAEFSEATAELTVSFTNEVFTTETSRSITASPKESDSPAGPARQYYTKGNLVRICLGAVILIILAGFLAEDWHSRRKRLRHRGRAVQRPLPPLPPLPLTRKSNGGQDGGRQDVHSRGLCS
T1 sequence (P30273 19-86 partner): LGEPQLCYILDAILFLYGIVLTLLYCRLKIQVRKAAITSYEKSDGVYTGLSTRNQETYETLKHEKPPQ

[2] = biological target: T2, CalDAG-GEFI (Homo sapiens, UniProt Q7LDG7); test: BODIPY-FL-GDP fluorescence nucleotide exchange assay with purified recombinant CalDAG-GEFI and Rap1B; format: biochemical
T2 construct: gene RASGRP2; recombinant 6xHis, C-terminal truncation p.(Ala552_Leu609del); with Rap1B
T2 sequence (P61224 1-167): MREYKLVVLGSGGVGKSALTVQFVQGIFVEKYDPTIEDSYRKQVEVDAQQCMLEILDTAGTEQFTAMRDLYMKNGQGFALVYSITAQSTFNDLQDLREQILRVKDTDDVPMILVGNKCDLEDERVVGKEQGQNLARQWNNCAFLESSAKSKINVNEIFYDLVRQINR
T2 sequence (Q7LDG7 1-551): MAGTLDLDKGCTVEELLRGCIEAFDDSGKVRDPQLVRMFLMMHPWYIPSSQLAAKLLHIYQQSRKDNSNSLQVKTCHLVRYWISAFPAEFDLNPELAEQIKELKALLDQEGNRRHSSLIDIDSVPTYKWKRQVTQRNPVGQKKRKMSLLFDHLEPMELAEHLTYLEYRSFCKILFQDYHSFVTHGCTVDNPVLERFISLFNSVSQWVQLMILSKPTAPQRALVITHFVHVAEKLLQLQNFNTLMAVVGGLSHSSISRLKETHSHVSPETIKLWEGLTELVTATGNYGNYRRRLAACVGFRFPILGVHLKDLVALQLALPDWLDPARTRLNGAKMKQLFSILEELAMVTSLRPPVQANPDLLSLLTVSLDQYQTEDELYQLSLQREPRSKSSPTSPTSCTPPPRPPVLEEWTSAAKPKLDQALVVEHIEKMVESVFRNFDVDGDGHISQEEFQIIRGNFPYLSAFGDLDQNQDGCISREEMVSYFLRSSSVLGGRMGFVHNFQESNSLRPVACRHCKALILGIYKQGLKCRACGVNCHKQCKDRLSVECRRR
Source text: BODIPY-FL-GDP fluorescence nucleotide exchange assay with purified recombinant CalDAG-GEFI and Rap1B on CalDAG-GEFI | Citalopram inhibited CalDAG-GEFI-mediated BODIPY-FL-GDP exchange onto Rap1B in a concentration-dependent manner

Structure (SMILES): CN(C)CCCC1(c2ccc(F)cc2)OCc2cc(C#N)ccc21 (racemic) [citalopram]
- Kb [1]: ~16 µM
- IC50 [2]: 214 µM
